# Source: the supplement of paper PMC10307832
# Legend:
# Assay in all cases: relative viability (nuclei count vs DMSO), 5 days (fraction); higher = more cells survive
# CUDC-101 + Trametinib = compound: C#Cc1cccc(Nc2ncnc3cc(OC)c(OCCCCCCC(=O)NO)cc23)c1 [CUDC-101] + CC(=O)Nc1cccc(-n2c(=O)n(C3CC3)c(=O)c3c(Nc4ccc(I)cc4F)n(C)c(=O)c(C)c32)c1 [Trametinib] (partner 0.02 µM)
# Summary of the method: (§1)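 Lung cancer cell lines were pin-tool dosed in 1536-well plates on the day after seeding, with either a lone drug or a fixed anchor-drug dose plus five library-drug doses (not always all listed) in √10 steps. Nuclei were counted on 4× images after 5 days. Relative viability is the ratio of treated-well to vehicle-well nuclei counts, with each value a median of duplicate plates.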
# NVP-TAE684 + Foretinib = compound: COc1cc(N2CCC(N3CCN(C)CC3)CC2)ccc1Nc1ncc(Cl)c(Nc2ccccc2S(=O)(=O)C(C)C)n1 [NVP-TAE684] + COc1cc2c(Oc3ccc(NC(=O)C4(C(=O)Nc5ccc(F)cc5)CC4)cc3F)ccnc2cc1OCCCN1CCOCC1 [Foretinib] (partner 0.25 µM)
# Summary of the method: as §1
# Vandetanib + Linsitinib = compound: COc1cc2/c(=N/c3ccc(Br)cc3F)nc[nH]c2cc1OCC1CCN(C)CC1 [Vandetanib] + C[C@]1(O)C[C@@H](c2nc(-c3ccc4ccc(-c5ccccc5)nc4c3)c3c(N)nccn32)C1 [Linsitinib] (partner 1 µM)
# Summary of the method: as §1
# Vandetanib + Decitabine = compound: COc1cc2/c(=N/c3ccc(Br)cc3F)nc[nH]c2cc1OCC1CCN(C)CC1 [Vandetanib] + Nc1ncn([C@H]2C[C@H](O)[C@@H](CO)O2)c(=O)n1 [Decitabine] (partner 2 µM)
# Summary of the method: as §1
cell line,measurement,setting,value
UMC-11,relative viability,CUDC-101 + Trametinib; first compound 0.01 µM,0.727
same,relative viability,CUDC-101 + Trametinib; first compound 0.03162 µM,0.761
same,relative viability,CUDC-101 + Trametinib; first compound 0.1 µM,0.578
same,relative viability,CUDC-101 + Trametinib; first compound 0.3162 µM,0.399
same,relative viability,CUDC-101 + Trametinib; first compound 1 µM,0.127
same,relative viability,NVP-TAE684 + Foretinib; first compound 0.2 µM,1.03
same,relative viability,NVP-TAE684 + Foretinib; first compound 0.6325 µM,0.926
same,relative viability,NVP-TAE684 + Foretinib; first compound 2 µM,0.334
same,relative viability,Vandetanib + Linsitinib; first compound 0.02 µM,0.978
same,relative viability,Vandetanib + Linsitinib; first compound 0.06325 µM,0.994
same,relative viability,Vandetanib + Linsitinib; first compound 0.2 µM,0.97
same,relative viability,Vandetanib + Linsitinib; first compound 0.6325 µM,0.885
same,relative viability,Vandetanib + Linsitinib; first compound 2 µM,1
same,relative viability,Vandetanib + Decitabine; first compound 0.02 µM,0.595
same,relative viability,Vandetanib + Decitabine; first compound 0.06325 µM,0.553
same,relative viability,Vandetanib + Decitabine; first compound 0.2 µM,0.665
same,relative viability,Vandetanib + Decitabine; first compound 0.6325 µM,0.528
same,relative viability,Vandetanib + Decitabine; first compound 2 µM,0.614
